Laboratory results taken from patent US6004933A, “Cysteine protease inhibitors” (Cortech Inc., priority 1998, dated 1999).
Like-named read-outs stand apart in the source and are kept apart here.

Experiments:
FLICE (Mch5, Caspase 8) = FLICE (Mch5, Caspase 8) (Homo sapiens, UniProt Q14790); experiment: Caspase inhibition, photometric, Ac-DEVD-pNA; type: biochemical
Experimental: (§1) Inhibition constants were measured photometrically for YAMA (caspase 3), Lap3 (caspase 7), FLICE (caspase 8), Mch2 (caspase 6) and granzyme B. The buffer used for all enzymes consisted of 50 mM Hepes, 100 mM sodium chloride, 10% (v/v) sucrose, 0.1% (v/v) CHAPS and 10 mM dithiothreitol (DTT). In the case of granzyme B, only 1 mM DTT was used.
(§2) Enzymes were incubated at 37° C. for 10 minutes in 100 μL well plates and synthetic substrate and inhibitor were added simultaneously. Final substrate concentration was 20 μM in all cases. The synthetic substrate Ac-DEVD-pNA was used for all caspases and Succ-AAPD-pNA was used for granzyme B. The appearance of product was monitored over 10 minutes at 410 nm using a Spectromax 340 and IC50 curves were calculated from the initial slopes at varying inhibitor concentrations and inhibition constants were calculated.

Lap3 (Mch3, Caspase 7) = target: T1, Lap3 (Mch3, Caspase 7) (Homo sapiens, UniProt P55210); experiment: Caspase inhibition, photometric, Ac-DEVD-pNA; type: biochemical; conditions: 20 μM Ac-DEVD-pNA, 37° C.
T1 sequence (P55210 24-198 limits assumed): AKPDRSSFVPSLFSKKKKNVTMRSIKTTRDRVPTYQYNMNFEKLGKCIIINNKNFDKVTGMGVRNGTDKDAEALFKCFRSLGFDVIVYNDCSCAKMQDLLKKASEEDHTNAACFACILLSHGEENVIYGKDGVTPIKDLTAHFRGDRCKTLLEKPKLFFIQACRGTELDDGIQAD
T1 sequence (P55210 207-303 limits assumed): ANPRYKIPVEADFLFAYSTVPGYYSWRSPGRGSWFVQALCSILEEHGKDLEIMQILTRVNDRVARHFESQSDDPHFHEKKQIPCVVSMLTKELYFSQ
Experimental: as §1, §2

Mch2 (Caspase 6) = target: T2, Mch2 (Caspase 6) (Homo sapiens, UniProt P55212); experiment: Caspase inhibition, photometric, Ac-DEVD-pNA; type: biochemical; conditions: 20 μM Ac-DEVD-pNA, 37° C.
T2 sequence (P55212 24-179 limits assumed): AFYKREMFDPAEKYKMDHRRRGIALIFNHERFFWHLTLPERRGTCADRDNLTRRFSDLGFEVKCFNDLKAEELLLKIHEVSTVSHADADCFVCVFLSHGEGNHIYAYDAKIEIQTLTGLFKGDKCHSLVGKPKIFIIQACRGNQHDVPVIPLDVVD
T2 sequence (P55212 194-293 limits assumed): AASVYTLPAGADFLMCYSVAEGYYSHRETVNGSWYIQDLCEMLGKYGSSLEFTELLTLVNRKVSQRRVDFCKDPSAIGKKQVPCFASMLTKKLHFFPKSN
Experimental: as §1, §2

YAMA (CPP32, Caspase 3) = target: T3, YAMA (CPP32, Caspase 3) (Homo sapiens, UniProt P42574); experiment: Caspase inhibition, photometric, Ac-DEVD-pNA; type: biochemical; conditions: 20 μM Ac-DEVD-pNA, 37° C.
T3 sequence (P42574 29-175 limits assumed): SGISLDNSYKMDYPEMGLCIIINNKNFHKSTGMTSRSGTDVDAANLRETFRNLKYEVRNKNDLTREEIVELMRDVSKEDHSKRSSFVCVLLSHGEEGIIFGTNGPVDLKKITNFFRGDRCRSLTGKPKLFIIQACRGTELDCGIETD
T3 sequence (P42574 176-277 limits assumed): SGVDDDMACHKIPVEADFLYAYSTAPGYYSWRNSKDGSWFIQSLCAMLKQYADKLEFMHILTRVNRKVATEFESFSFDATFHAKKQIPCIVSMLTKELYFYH
Experimental: as §1, §2

ICE (Caspase 1) [1] = target: T4, ICE (Caspase 1) (Homo sapiens, UniProt P29466); experiment: THP-1 assay: IL-1β release after LPS stimulation (assay for ICE inhibition); type: cell-based; conditions: for IC50: LPS 1 ug/ml, 4 hr, ELISA, read-out: IC50 of reduction of IL1β release from THP1 cell line
T4 construct: endogenous in cells; host or cells: THP-1
T4 sequence (P29466 120-297 limits assumed): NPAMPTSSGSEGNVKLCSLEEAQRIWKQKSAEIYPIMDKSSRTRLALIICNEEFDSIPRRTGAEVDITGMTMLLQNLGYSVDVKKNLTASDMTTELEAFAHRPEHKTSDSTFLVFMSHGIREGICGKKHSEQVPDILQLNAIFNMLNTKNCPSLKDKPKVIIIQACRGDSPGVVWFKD
T4 sequence (P29466 317-404 limits assumed): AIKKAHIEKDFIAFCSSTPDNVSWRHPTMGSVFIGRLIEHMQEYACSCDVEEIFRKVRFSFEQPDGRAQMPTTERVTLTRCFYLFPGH
Description: (§3) To examine the ability of the caspase family inhibitors, CQ-0010 and CQ-0011, to inhibit human IL-1β production, two different assays were employed. In the first, the human monocytic cell line, THP-1, was stimulated with E. coli lipopolysaccharide (LPS serotype 0127-88; Sigma Chemical Co., St. Louis, Mo.) in the presence and absence of the inhibitors. This cell line synthesizes and secretes IL-1β and TNFα as well as other cytokines upon LPS stimulation. The second assay used freshly-isolated human whole blood similarly stimulated with LPS.
(§4) Two×10^6 THP-1 cells were added to 24 well plates in 1 ml RPMI supplemented with 1% FCS, glutamine and 5×10^-5 M mercaptoethanol. Two-fold serial dilutions of the inhibitors, CQ-0010, CQ-0011 and the commmercially available Ac-YVAD-CHO (Biomol Research Laboratories Inc., Plymouth Meeting, Pa.), were preincubated with the cells for 15 min at 37° C. LPS was then added to a final concentration of 1 ug/ml and the plates incubated for 4 hr at 37° C. All incubations were carried out in a humidified incubator with 5% CO2 in air.
(§5) Supernatants were harvested after 4 hr and assayed by ELISA for the presence of TNFα and IL-1β using commercially available kits (PerSeptive Biosystems, Framingham, Mass. and R&D Systems, Minneapolis, Minn., respectively).

ICE (Caspase 1) [2] = target: T4, ICE (Caspase 1); experiment: Human whole blood assay: IL-1β release after LPS stimulation (assay for ICE inhibition); type: cell-based; conditions: LPS 10 or 100 ug/ml, 4 hr, ELISA, read-out: IC50 of reduction of IL1β release in whole blood assay
Description: as §3
Heparinized whole blood (19.7 U heparin per ml) from healthy volunteers was collected and dispensed into 12×75 mm polystyrene tubes (0.25 ml per tube). The inhibitors, CQ-0010, CQ-0011 and Ac-YVAD-CHO were dissolved in DMSO, then diluted and added to the tubes in 0.25 ml and preincubated with the blood for 15 min at 37° C. LPS was then added to a final concentration of 10 or 100 ug/ml.
The tubes were loosely-capped and incubated in a water bath for 4 hr at 37° C. after which they were immersed briefly in an ice-water bath. Supernatants were harvested by centrifngation and stored at -70° C. The presence of TNFα and IL-1β was detected by commercially-available ELISA kits.

granzyme B = granzyme B (Homo sapiens, UniProt P10144); experiment: Granzyme B inhibition, photometric, Succ-AAPD-pNA; type: biochemical; conditions: 20 μM Succ-AAPD-pNA, 1 mM DTT
Sequence of granzyme B (P10144 21-247, species assumed): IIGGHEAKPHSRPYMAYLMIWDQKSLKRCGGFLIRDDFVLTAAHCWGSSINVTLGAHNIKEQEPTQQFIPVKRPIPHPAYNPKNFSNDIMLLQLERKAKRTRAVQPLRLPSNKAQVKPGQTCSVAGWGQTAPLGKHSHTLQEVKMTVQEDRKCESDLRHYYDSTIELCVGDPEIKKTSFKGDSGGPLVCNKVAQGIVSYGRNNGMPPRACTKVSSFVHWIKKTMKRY
Experimental: as §1, §2

TNFα = experiment: THP-1 assay: TNFα levels after LPS stimulation; type: cell-based, human; conditions: THP-1 cells, results not shown
Description: as §3, §4, §5

[3] = 20 μM Ac-DEVD-pNA, 37° C., read-out: Ki, FLICE (Mch5, Caspase 8)

Sequence of FLICE (Mch5, Caspase 8) (Q14790 217-374 limits assumed, species assumed): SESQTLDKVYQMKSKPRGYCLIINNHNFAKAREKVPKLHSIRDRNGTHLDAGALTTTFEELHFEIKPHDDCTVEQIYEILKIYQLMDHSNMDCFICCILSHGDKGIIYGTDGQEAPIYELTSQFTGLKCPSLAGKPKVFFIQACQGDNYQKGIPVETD
Sequence of FLICE (Mch5, Caspase 8) (Q14790 385-479 limits assumed, species assumed): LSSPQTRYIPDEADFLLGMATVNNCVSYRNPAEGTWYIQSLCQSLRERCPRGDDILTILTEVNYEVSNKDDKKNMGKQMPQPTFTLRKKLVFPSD

Ki (FLICE (Mch5, Caspase 8); read-out: Ki, FLICE) [µM]	inhibition of IL-1β production (ICE (Caspase 1) [1]; at 5 μM, THP-1 cells (FIG. 1))	Compound	Ki (FLICE (Mch5, Caspase 8); [3]) [µM]	Ki, Lap3 (Mch3, Caspase 7) (Lap3 (Mch3, Caspase 7))	Ki (Mch2 (Caspase 6)) [µM]	Ki (YAMA (CPP32, Caspase 3)) [µM]	IC50 (ICE (Caspase 1) [1]) [µM]	IC50 (ICE (Caspase 1) [2]) [µM]	Ki, Granzyme (granzyme B)	effect on levels of TNFα produced (TNFα)
–	–	CC(=O)N[C@@H](Cc1ccc(O)cc1)C(=O)N[C@H](C(=O)N[C@@H](C)C(=O)N[C@H](C=O)CC(=O)O)C(C)C [Ac-YVAD-CHO, reference compound]	3.7	Not Active	100	20	0.3	0.3 to 0.5	Not Active	–
≤ 0.02	almost completely inhibiting	CC(=O)N[C@@H](Cc1ccc(O)cc1)C(=O)N[C@H](C(=O)N[C@@H](C)C(=O)NC(CC(=O)O)C(=O)c1nnc(-c2ccccc2)o1)C(C)C (stereo partly drawn) [CQ-0010, Acetyl-L-tyrosinyl-L-valyl-N-[1-[2-[(5-phenyl)-1,3,4-oxadiazolyl]carbonyl]-2-carboxy-ethyl]-L-alanine amide]	≤ 0.02	Not Active	33	3.3	0.3	0.3 to 0.5	Not Active	no dose-dependent effect
